The text below walks through data of patent publication US11951204B2, “Cell-penetrating peptides and composition including the same” (S-SKIN. CO., LTD., priority 2022, dated 2024).

Several values for one entry are separate records, joined by “and”; a condition that tells them apart may be missing. Equal values may be shown once. Ends that are not written are not given here. Peptide text beside a SMILES is read from it. * marks the point of attachment. FITC = O=C1OC2(c3ccc(O)cc3Oc3cc(O)ccc32)c2ccc(NC(=S)*)cc21; Palmitoyl = CCCCCCCCCCCCCCCC(=O)*; Ahx = NCCCCCC(=O)O

What all share (format): cell-based, human
Data set [1] is described as follows: Cytotoxicity assay of difunctional peptide (WST-1, microscopy). Conditions: human, HDF-N cells, HDF-N, read-out: cell proliferation rate / survival rate (WST-1); for viability at 24 h, 12.5 µM: 12.5 μM peptide; for viability at 24 h, 25 µM: 25 μM peptide; for viability at 24 h, 50 µM: 50 μM peptide; for viability at 24 h, 100 µM: 100 μM peptide.
A further data set concerns HDF-N. Described as above. Conditions: for change in the appearance of the cells (microscope): 12.5 μM to 100 μM.
The subject of another data set is HDF-N cells. As to conditions: for Cell viability(%): human, 24 h, 12.5 μM. On the procedure:
Cytotoxicity of the cell-penetrating multifunctional peptide according to Example 1 was checked. Specifically, HaCaT cells (human keratinocytes) were inoculated at a concentration of 1.5×10^4 cells/well into a 96-well plate and incubated for 24 hours. Then, the medium was removed, followed by washing once with PBS, and replaced with a serum-free medium. The cells were treated with Spep001 (SEQ ID NO: 1), Spep002 (SEQ ID NO: 8) or Spep003 (SEQ ID NO: 9) at a concentration of 0 μM, 25 μM, 50 μM, 100 μM or 200 μM and then further incubated for 24 hours. Herein, culture conditions were maintained at 37° C. with 5% CO2.
Also, at the time of completion of incubation, a WST-1 assay (Water Soluble Tetrazolium salt-1, EZ-assay kit, DoGenBio) was conducted. Specifically, 100 μL of a WST-1 solution was added to the well of cells after the completion of further incubation and then incubated for 3 hours. Thereafter, the absorbance at 450 nm was measured using a microplate spectrophotometer (Multiskan™ GO, thermo), and the result thereof is shown in FIG. 2B and Table 2 below.
HDF-N cells were treated with 12.5 μM KTTKS (SEQ ID NO: 5), Spep001-KTTKS (SEQ ID NO: 6) and pal-KTTKS which are peptides fabricated in Example 9. The appearance and proliferation rate of the cells were measured as in Example 3, and the results thereof are shown in FIG. 9A(i) to FIG. 9A(iv), FIG. 9B and Table 7 below.

For data set [2], the system named is HaCaT cells. Description: Dependence of cell penetration on ATP (flow cytometry). As to conditions: pre-treated with 2-DG and NaN3. As for the experimental part:
(§1) HaCaT cells were inoculated at a concentration of 3×10^5 cells/well into a 6-well plate and incubated for 24 hours. Then, the cell culture medium was removed, followed by washing twice with HBSS, and replaced with an Opti-MEM medium. The cells were treated with 10 μM FITC-TAT, FITC-Spep001, FITC-Spep002 or FITC-Spep003 and incubated at 37° C. with 5% CO2 for 1 hour. […] Finally, the cells were treated with 1 mg/mL trypsin and thus separated into single cells, followed by centrifugation at 1,000 rpm for 5 minutes. The FITC fluorescence intensities of cell-penetrating peptides per living 10,000 cells were measured by performing flow cytometry (Navios Flow Cytometer by Beckman Coulter Life Sciences), and the result thereof is shown in FIG. 5A(i) to FIG. 5A(v) and FIG. 5B.
A test was conducted in the same conditions as those in Example 7 except that the cells were pre-treated with 2-DG (2-deoxyglucose, D6134, sigma) and NaN3 (sodium azide, 71289, sigma) one hour before treatment with FITC-TAT, FITC-Spep001, FITC-Spep002 or FITC-Spep003 to check the dependence of endocytosis on ATP. Then, the FITC fluorescence intensities of peptides penetrating into living cells were measured by flow cytometry as in Example 5, and the result thereof is shown in FIG. 7.
On the technique in general: In flow cytometry, cells or beads pass a laser one at a time.

Data set [3] concerns HaCaT cells. Briefly: Cell penetration rate by flow cytometry. Conditions: 10 μM, 37° C., 1 hour. On the procedure:
as §1

Data set [4] has as its system HaCaT cells. Briefly: Cell penetration by confocal laser microscope. Conditions: 10 μM, 24 hours, compared to positive control FITC-TAT. On the procedure:
HaCaT cells were inoculated at a concentration of 1.5×10^4 cells/well into an optical 96-well plate (M0562, Greiner) and incubated for 24 hours. Then, the medium was removed, followed by washing once with HBSS, and replaced with a serum-free medium. The cells were treated with 10 μM FITC-Spep001, FITC-Spep002 or FITC-Spep003 and then further incubated for 24 hours. Thereafter, the cells were washed four times with HBSS and treated with 10 μg/mL H33342 (bisBenzimide H33342 trihydrochloride (B2261, Sigma)) and then further incubated at room temperature for 5 minutes. Finally, the cells were washed three times with HBSS. The cell penetration rate was checked using a super resolution confocal laser microscope (LSM800), and the result thereof is shown in FIG. 4A(i) to FIG. 4F(iv). Herein, the cells were treated only FITC (F1906, Invitrogen™) as a negative control, and FITC-TAT was used as a positive control.

Data set [5] deals with collagen synthesis in HDF-N cells. Description: Synthesis of collagen, PIP (procollagen Type 1C-peptide) ELISA. Conditions: 12.5 μM, 24 hours. On the procedure:
HDF-N cells were inoculated at a concentration of 1×10^4 cells/well into a 96-well plate and incubated for 24 hours. Then, the medium was removed, followed by washing twice with PBS, and replaced with a serum-free medium. Thereafter, 12.5 μM KTTKS (SEQ ID NO: 5), Spep001-KTTKS (SEQ ID NO: 6) and pal-KTTKS were added to each well and then incubated for 24 hours. Then, 10 μL of the cell culture fluid was obtained and centrifuged at 800 rpm for 5 minutes. Thereafter, the degree of synthesis of collagen was checked using a PIP (procollagen Type 1C-peptide) ELISA kit (MK101, Takara), and the result thereof is shown in FIG. 10 and Table 8 below.
(An ELISA detects its analyte on a solid surface through an enzyme-linked reagent.)

Consider “RLRLRQRRRRKTTKS [Spep001-KTTKS, RLRLRQRRRRKTTKS]”, for which, in data set [1], the viability at 24 h, 12.5 µM amounted to 167 ± 13.4%; the viability at 24 h, 25 µM came to 148 ± 8.42%; the viability at 24 h, 50 µM turned out to be 104 ± 3.16%; the viability at 24 h, 100 µM turned out to be 106 ± 11.4%. In addition, in the data set on HDF-N, the “change in the appearance of the cells (microscope)” value (“change in the appearance” for short) was “no change in the appearance”. The “cell proliferation rate / survival rate (WST-1)” value with HDF-N (HDF-N, 12.5 μM peptide) is on record as 167.45±13.38%. Besides, in the data set with HDF-N cells, the “change in the appearance” value is given as “no change in the appearance” and the “Cell viability(%)” value is on record as 215.58%.
Regarding `CCCCCCCCCCCCCCCC(=O)N[C@@H](CCCCN)C(=O)N[C@H](C(=O)N[C@H](C(=O)N[C@@H](CCCCN)C(=O)N[C@@H](CO)C(=O)O)[C@@H](C)O)[C@@H](C)O` [Palmitoyl-KTTKS, Pal-KTTKS] (Palmitoyl-KTTKS-OH), in the data set on HDF-N cells, the “change in the appearance” value is “appearance of the cells treated with Pal-KTTKS was changed” and the “Cell viability(%)” value is 109.22%.
As to “FITC-Ahx-RKRWLRKPRP ({FITC-Ahx}-RKRWLRKPRP) [FITC-Spep003, Spep003 labelled with FITC at the N-terminal amine group]”, the “FITC fluorescence intensity under ATP deficiency” value in the data set with HaCaT cells [2] was “decreased”. Moreover, in the data set with HaCaT cells [3], the “cell penetration rate (FITC-positive cell count)” value was 7.8% and the “cell penetration rate based on TAT-FITC with a cell penetration rate of 100%” value was 28.8%.
The like results for “FITC-Ahx-KRRWRKIPKR ({FITC-Ahx}-KRRWRKIPKR) [FITC-Spep002, Spep002 labelled with FITC at the N-terminal amine group]” were, in that order, “decreased”, 6.3% and 23.3%.
On to “KTTKSRLRLRQRRRR [KTTKS-Spep001, KTTKSRLRLRQRRRR]”, for which, in data set [1], the viability at 24 h, 12.5 µM was 111 ± 8.6%; the viability at 24 h, 25 µM came out at 120 ± 4.46%; the viability at 24 h, 50 µM was found to be 107 ± 7.61%; the viability at 24 h, 100 µM stood at 94.1 ± 3.2%. The “change in the appearance” value in the data set on HDF-N is “no change in the appearance”. Besides, the “cell proliferation (in words)” value in the data set on HDF-N (compared to control (0 μM)) is given as “maintained at a level similar to that of a control”.
In the case of “FITC-Ahx-RLRLRQRRRR ({FITC-Ahx}-RLRLRQRRRR) [FITC-Spep001, Spep001 labelled with FITC at the N-terminal amine group]”, the “FITC fluorescence intensity under ATP deficiency” value in the data set with HaCaT cells [2] is listed as “decreased”. For the same compound, in the data set with HaCaT cells [3], the “cell penetration rate (FITC-positive cell count)” value came to 36.3% and the “cell penetration rate based on TAT-FITC with a cell penetration rate of 100%” value is 133.95%. Moreover, the “amount penetrating into cells (fluorescent microscopic image)” value with HaCaT cells [4] is given as “penetrates into cells in a greater amount than the positive control FITC-TAT”.
In the case of H-KTTKS-OH [KTTKS, reference compound], in data set [5], the “PIP (collagen in cell culture fluid)” value was 203.24 ng/mL and 203.24 ± 10.74 ng/mL; the “amount of collagen synthesized based on the control” value turned out to be 159.99%. In addition, in data set [1], the viability at 24 h, 12.5 µM was 104 ± 13%; the viability at 24 h, 25 µM stood at 107 ± 20.1%; the viability at 24 h, 50 µM came out at 105 ± 4.28%; the viability at 24 h, 100 µM came out at 119 ± 11.6%. Also, the “change in the appearance” value in the data set on HDF-N is given as “no change in the appearance”. Further, in the data set with HDF-N cells, the “change in the appearance” value is “no change in the appearance” and the “Cell viability(%)” value came to 110.58%.
